# Experimental data reported in ChEMBL document CHEMBL6109120, “Discovery of Novel SIK2/3 Inhibitors for the Potential Treatment of MEF2C+ Acute Myeloid Leukemia (AML)” (J Med Chem, 2025).
# Legend:
# Cytochrome P450 2D6 = Cytochrome P450 2D6 (Homo sapiens, UniProt P10635); test: Inhibition of CYP2D6 in human liver microsomes assessed as dextromethorphan O-demethylation reaction measured after 30 mins by LC/MS/MS analysis; assay type: ADME, Microsome
# [1] = biological target: T1, Serine/threonine-protein kinase TBK1 (Homo sapiens, UniProt Q9UHD2)
# T1 sequence (Q9UHD2 whole entry): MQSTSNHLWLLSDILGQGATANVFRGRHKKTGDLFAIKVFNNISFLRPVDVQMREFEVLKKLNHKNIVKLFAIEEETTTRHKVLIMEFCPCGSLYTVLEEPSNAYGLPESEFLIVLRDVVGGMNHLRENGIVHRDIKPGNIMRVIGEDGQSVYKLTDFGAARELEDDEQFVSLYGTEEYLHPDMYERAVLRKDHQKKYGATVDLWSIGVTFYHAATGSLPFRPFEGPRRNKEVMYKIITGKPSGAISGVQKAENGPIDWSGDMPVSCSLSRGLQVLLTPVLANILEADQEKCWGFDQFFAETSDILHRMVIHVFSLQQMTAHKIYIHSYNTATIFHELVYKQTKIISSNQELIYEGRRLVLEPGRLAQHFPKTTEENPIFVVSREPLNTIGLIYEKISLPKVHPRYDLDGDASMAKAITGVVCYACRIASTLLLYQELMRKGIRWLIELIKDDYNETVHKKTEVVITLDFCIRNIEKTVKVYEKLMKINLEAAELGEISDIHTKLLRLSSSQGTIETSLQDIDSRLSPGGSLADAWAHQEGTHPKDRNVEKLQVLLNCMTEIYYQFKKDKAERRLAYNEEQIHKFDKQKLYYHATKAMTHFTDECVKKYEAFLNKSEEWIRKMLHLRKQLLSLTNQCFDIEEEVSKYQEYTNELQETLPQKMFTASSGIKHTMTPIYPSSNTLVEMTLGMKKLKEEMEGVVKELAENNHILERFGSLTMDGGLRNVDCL
# Description: Binding affinity to human TBK1 by KINOMEscan assay
# Cytochrome P450 2D6, sequence (P10635 whole entry): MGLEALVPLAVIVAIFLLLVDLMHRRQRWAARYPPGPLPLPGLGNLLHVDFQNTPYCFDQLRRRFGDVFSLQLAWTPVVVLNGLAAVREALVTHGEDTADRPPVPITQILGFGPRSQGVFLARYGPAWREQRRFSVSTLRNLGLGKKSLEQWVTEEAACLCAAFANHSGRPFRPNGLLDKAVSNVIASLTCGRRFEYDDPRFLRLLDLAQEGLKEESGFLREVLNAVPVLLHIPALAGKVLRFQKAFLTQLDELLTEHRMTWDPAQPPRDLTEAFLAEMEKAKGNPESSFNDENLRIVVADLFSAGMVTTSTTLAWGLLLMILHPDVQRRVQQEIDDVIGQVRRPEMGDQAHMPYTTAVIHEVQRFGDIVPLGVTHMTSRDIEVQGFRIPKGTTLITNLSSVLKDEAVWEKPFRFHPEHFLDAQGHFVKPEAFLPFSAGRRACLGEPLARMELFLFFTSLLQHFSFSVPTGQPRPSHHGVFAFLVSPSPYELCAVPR
smiles,measurement,setting,value
COc1nc(-c2cc(-c3cnn(C)c3)cnc2N)cc2c1C(=O)N(CC(F)(F)F)CC2,IC50,Cytochrome P450 2D6,> 50000 nM
same,IC50,[1],230 nM
